In patent US11061016B2, “In vitro model for pathological or physiologic conditions” (HemoShear, LLC, priority 2012, dated 2021):

Key:
[1] = tested on: hepatocytes; assay: Fatty liver model: RT-PCR metabolic gene expression; details: high insulin/glucose disease conditions; pioglitazone 1.5 μM
[2] = tested on: hepatocytes; assay: Fatty liver model: measurement of total triglycerides; format: cell-based, rat; details: high insulin/glucose media; pioglitazone 1.5 μM; to levels similar to healthy conditions
Experimental: Triglyceride content was assessed using a commercially available colorimetric assay kit (Cayman Triglyceride Colorimetric Assay Kit, Cat #10010303). At the end of the treatment period, cells were collected from the porous membranes by scraping with a rubber policeman and PBS, after which they were centrifuged (2,000×g for 10 minutes at 4° C.). The cell pellets were resuspended in 100 μl of cold diluted Standard Diluent from the triglyceride assay kit and sonicated 20 times at one second bursts. The cell suspension was then centrifuged at 10,000×g for 10 minutes at 4° C. The supernatant was removed and used for the assay as per the manufacturer's protocol and normalized to protein content from the same samples.

CCc1ccc(CCOc2ccc(CC3SC(=O)NC3=O)cc2)nc1 (centres unmarked) [Pioglitazone, pioglitazone]
expression of metabolic genes such as Cyp3A2 [1]: restored | total triglyceride content of hepatocytes [2]: reduced
